Assay results as given in US9115137B2, “2,3,4,5-tetrahydro-1H-pyrido[4,3-B]indole compounds and methods of use thereof” (priority 2008, dated 2015).

What was measured:
[1] = biological target: T1, human recombinant histamine H1 receptor (Homo sapiens, UniProt P35367); test: Histamine H1 radioligand binding ([3H]Pyrilamine); conditions: compound at 1 μM; CHO cells; read-out: Histamine Binding (1 μM) H1, percent inhibition of specific binding
T1 construct: expressed in transfected cells; host or cells: CHO cells
Procedure: To evaluate in radioligand binding assays the activity of compounds of the invention, human recombinant histamine H1 receptor expressed in Chinese hamster ovary (CHO) cells (De Backer, M. D. et al., Biochem. Biophys. Res. Comm. 197(3):1601, 1993) in a modified Tris-HCl buffer (50 mM Tris-HCl, pH 7.4, 2 mM MgCl2, 100 mM NaCl, 250 mM Sucrose) was used. Compounds of the invention were incubated with 1.2 nM [^3H]Pyrilamine for 180 minutes at 25° C. Non-specific binding was estimated in the presence of 1 μM pyrilamine. Receptor proteins were filtered and washed, the filters were then counted to determine [^3H]Pyrilamine specifically bound. Compounds were screened at 1 μM, using 1% DMSO as vehicle. Biochemical assay results are presented as the percent inhibition of specific binding in Table 5.

[2] = biological target: T2, human recombinant adrenergic α2B receptor (Homo sapiens, UniProt P18089); test: Adrenergic α2B radioligand binding ([3H]Rauwolscine); conditions: compound at 1 μM; CHO-K1 cells; read-out: Adrenergic (1 μM) α2B, percent inhibition of specific binding
T2 construct: expressed in transfected cells; host or cells: CHO-K1 cells
T2 sequence (P18089 1-450): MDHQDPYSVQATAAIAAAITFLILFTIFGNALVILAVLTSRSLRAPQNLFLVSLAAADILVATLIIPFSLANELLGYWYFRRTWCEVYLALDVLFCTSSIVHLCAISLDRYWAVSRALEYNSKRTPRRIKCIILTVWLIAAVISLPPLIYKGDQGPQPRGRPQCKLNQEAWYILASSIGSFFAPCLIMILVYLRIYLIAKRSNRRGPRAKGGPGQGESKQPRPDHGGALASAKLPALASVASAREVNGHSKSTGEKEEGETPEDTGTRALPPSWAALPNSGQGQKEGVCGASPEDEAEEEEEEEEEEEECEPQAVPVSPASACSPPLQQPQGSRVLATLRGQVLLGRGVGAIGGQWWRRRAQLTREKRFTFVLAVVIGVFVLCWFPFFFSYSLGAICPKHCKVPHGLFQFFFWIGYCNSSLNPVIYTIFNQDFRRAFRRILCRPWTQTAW
Procedure: To evaluate in radioligand binding assays the activity of compounds of the invention, human recombinant adrenergic α2B receptor expressed in Chinese hamster ovary (CHO-K1) cells (Uhlen S et al. Eur. J. Pharmacol. 343(1):93, 1998) in a modified Tris-HCl buffer (50 mM Tris-HCl, pH 7.4, 12.5 mM MgCl2, 1 mM EDTA, 0.2% BSA) was used. Compounds of the invention were incubated with 2.5 nM [3H]Rauwolscine for 60 minutes at 25° C. Non-specific binding was estimated in the presence of 10 μM Prozosin. Receptor proteins were filtered and washed, the filters were then counted to determine [^3H]Rauwolscine specifically bound. Compounds were screened at 1 μM or lower, using 1% DMSO as vehicle. Biochemical assay results are presented as the percent inhibition of specific binding in Table 6.

[3] = biological target: T3, human recombinant serotonin (5-Hydroxytryptamine) 5-HT2C receptor (Homo sapiens, UniProt P28335); test: Serotonin 5-HT2C radioligand binding ([3H]Mesulergine); conditions: compound at 1 μM; CHO-K1 cells; read-out: Serotonin (1 μM) 5-HT2C, percent inhibition of specific binding
T3 construct: expressed in transfected cells; host or cells: CHO-K1 cells
T3 sequence (P28335 33-458): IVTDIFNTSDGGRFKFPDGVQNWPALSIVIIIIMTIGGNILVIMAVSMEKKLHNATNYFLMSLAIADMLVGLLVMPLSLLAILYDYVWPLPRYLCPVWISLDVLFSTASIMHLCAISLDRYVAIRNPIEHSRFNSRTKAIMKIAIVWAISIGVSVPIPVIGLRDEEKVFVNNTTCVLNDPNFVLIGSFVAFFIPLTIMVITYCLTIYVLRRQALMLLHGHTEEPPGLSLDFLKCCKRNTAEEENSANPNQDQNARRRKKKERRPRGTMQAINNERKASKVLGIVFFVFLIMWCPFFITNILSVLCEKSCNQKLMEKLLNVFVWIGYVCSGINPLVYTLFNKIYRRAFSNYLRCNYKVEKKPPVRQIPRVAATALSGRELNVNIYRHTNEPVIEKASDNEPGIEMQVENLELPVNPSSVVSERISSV
Procedure: To evaluate in radioligand binding assays the activity of compounds of the invention, human recombinant serotonin (5-Hydroxytryptamine) 5-HT2C receptor expressed in Chinese hamster ovary (CHO-K1) cells (Wolf, W. A. and Schutz, J. S., J. Neurochem. 69:1449, 1997) in a modified Tris-HCl buffer (50 mM Tris-HCl, pH 7.4, 0.1% Ascorbic Acid, 10 μM Pargyline) was used. Compounds of the invention were incubated with 1 nM [^3H]Mesulergine for 60 minutes at 25° C. Non-specific binding was estimated in the presence of 1 μM Mianserin. Receptor proteins were filtered and washed, the filters were then counted to determine [^3H]Mesulergine specifically bound. Compounds were screened at 1 μM or lower, using 1% DMSO as vehicle. Biochemical assay results are presented as the percent inhibition of specific binding in Table 7.

[4] = biological target: T4, human recombinant dopamine D2L receptor (Homo sapiens, UniProt P14416); test: Dopamine D2L radioligand binding ([3H]Spiperone); conditions: compound at 1 μM; CHO cells; read-out: Dopamine (1 μM) D2L, percent inhibition of specific binding
T4 construct: expressed in transfected cells; host or cells: CHO cells
Procedure: To evaluate in radioligand binding assays the activity of compounds of the invention, human recombinant dopamine D2L receptor expressed in Chinese hamster ovary (CHO) cells (Grandy, D. K. et al. Proc. Natl. Acad. Sci. USA. 86:9762, 1989; Hayes, G. et al., Mol. Endocrinol. 6:920, 1992) in a modified Tris-HCl buffer (50 mM Tris-HCl, pH 7.4, 1.4 mM Ascorbic Acid, 0.001% BSA, 150 mM NaCl) was used. Compounds of the invention were incubated with 0.16 nM [^3H]Spiperone for 120 minutes at 25° C. Non-specific binding was estimated in the presence of 10 μM Haloperidol. Receptor proteins were filtered and washed, the filters were then counted to determine [^3H]Spiperone specifically bound. Compounds were screened at 1 μM or lower, using 1% DMSO as vehicle. Biochemical assay results are presented as the percent inhibition of specific binding in Table 6.

T1 sequence (P35367 whole entry): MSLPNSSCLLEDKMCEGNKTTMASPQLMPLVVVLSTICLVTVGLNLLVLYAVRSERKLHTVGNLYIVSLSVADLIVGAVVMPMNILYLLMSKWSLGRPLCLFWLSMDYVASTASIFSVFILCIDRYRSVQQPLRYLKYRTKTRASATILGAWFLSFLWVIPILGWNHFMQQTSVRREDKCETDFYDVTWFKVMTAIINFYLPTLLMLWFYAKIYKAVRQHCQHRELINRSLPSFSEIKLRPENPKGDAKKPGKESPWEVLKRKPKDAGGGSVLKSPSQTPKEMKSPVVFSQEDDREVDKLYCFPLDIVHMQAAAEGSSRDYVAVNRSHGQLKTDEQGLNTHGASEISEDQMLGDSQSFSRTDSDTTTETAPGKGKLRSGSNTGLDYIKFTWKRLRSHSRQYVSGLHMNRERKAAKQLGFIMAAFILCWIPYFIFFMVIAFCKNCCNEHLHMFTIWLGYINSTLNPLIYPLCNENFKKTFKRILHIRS
T4 sequence (P14416 whole entry): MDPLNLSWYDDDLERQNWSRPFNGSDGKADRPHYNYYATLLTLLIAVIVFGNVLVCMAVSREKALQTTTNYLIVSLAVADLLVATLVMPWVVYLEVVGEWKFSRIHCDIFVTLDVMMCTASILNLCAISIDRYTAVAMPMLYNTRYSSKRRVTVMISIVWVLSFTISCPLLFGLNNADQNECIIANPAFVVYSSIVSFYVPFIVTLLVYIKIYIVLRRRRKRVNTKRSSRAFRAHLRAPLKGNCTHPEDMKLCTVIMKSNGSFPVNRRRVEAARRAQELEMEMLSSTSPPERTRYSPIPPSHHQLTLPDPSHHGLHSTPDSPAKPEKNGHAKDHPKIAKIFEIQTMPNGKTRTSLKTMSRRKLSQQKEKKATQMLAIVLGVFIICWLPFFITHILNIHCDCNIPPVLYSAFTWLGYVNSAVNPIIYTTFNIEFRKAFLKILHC

Compound | inhibition at 1 µM [1] [%] | inhibition at 1 µM [2] [%] | inhibition at 1 µM [3] [%] | inhibition at 1 µM [4] [%]
Cc1ccc2c(c1)c1c(n2CC(=O)NC(C)(C)C)CCN(C)C1 [Compound 24, N-tert-butyl-2-(1,2,3,4-tetrahydro-2,8-dimethylpyrido[4,3-b]indol-5-yl)acetamide] | 44 | 13 | 21 | 3
Cc1ccc2c(c1)c1c(n2CC(=O)NCc2ccccc2)CCN(C)C1 [Compound 25, N-benzyl-2-(1,2,3,4-tetrahydro-2,8-dimethylpyrido[4,3-b]indol-5-yl)acetamide] | 72 | 38 | 61 | -3
Cc1ccc2c(c1)c1c(n2CC(=O)NCC2CCCCC2)CCN(C)C1 [Compound 26, N-(cyclohexylmethyl)-2-(1,2,3,4-tetrahydro-2,8-dimethylpyrido[4,3-b]indol-5-yl)acetamide] | 66 | 45 | 54 | -4
CN1CCc2c(c3cc(Cl)ccc3n2CC(=O)NC2CCCC2)C1 [Compound 27, 2-(8-chloro-1,2,3,4-tetrahydro-2-methylpyrido[4,3-b]indol-5-yl)-N-cyclopentylacetamide] | 63 | 35 | 28 | -2
Cc1ccc2c(c1)c1c(n2CCC(=O)NC(C)(C)C)CCN(C)C1 [Compound 28] | 21 | 85 | 35 | -1
Cc1ccc2c(c1)c1c(n2CCC(=O)Nc2ccccc2)CCN(C)C1 [Compound 29] | 84 | 79 | 73 | 2
Cc1ccc2c(c1)c1c(n2CCC(=O)NCC2CCCCC2)CCN(C)C1 [Compound 30, N-(cyclohexylmethyl)-3-(1,2,3,4-tetrahydro-2,8-dimethylpyrido[4,3-b]indol-5-yl)propanamide] | 18 | 104 | 93 | 7
CN1CCc2c(c3cc(Cl)ccc3n2CCC(=O)NC2CCCC2)C1 [Compound 31, 3-(8-chloro-1,2,3,4-tetrahydro-2-methylpyrido[4,3-b]indol-5-yl)-N-cyclopentylpropanamide] | 45 | 91 | 76 | 9
CN1CCc2c(c3cc(Cl)ccc3n2CC(N)=O)C1 [Compound 45, 2-(8-chloro-1,2,3,4-tetrahydro-2-methylpyrido[4,3-b]indol-5-yl)acetamide] | 82 | 18 | 52 | 7
Cc1ccc2c(c1)c1c(n2CCC(N)=O)CCN(C)C1 [Compound 46, 3-(1,2,3,4-tetrahydro-2,8-dimethylpyrido[4,3-b]indol-5-yl)propanamide] | 52 | 46 | 65 | 4
Cc1ccc2c(c1)c1c(n2CCC(=O)Nc2ccc(F)cc2)CCN(C)C1 [Compound 47, N-(4-fluorophenyl)-3-(1,2,3,4-tetrahydro-2,8-dimethylpyrido[4,3-b]indol-5-yl)propanamide] | 90 | 96 | 90 | -3
CN1CCc2c(c3cc(Cl)ccc3n2CC(=O)N(C)C)C1 [Compound 48, 2-(8-chloro-1,2,3,4-tetrahydro-2-methylpyrido[4,3-b]indol-5-yl)-N,N-dimethylacetamide] | 73 | 13 | 37 | -6
CN1CCc2c(c3cc(Cl)ccc3n2CCC(=O)N(C)C)C1 [Compound 49, 3-(8-chloro-1,2,3,4-tetrahydro-2-methylpyrido[4,3-b]indol-5-yl)-N,N-dimethylpropanamide] | 82 | 76 | 47 | 9
Cc1ccc2c(c1)c1c(n2CCNC(=O)c2ccncc2)CCN(C)C1 [Compound 50, N-(2-(1,2,3,4-tetrahydro-2,8-dimethylpyrido[4,3-b]indol-5-yl)ethyl)isonicotinamide] | 47 | 70 | 35 | 7
Cc1ccc2c(c1)c1c(n2CC(=O)Nc2ccc(F)cc2)CCN(C)C1 [Compound 51, N-(4-fluorophenyl)-2-(1,2,3,4-tetrahydro-2,8-dimethylpyrido[4,3-b]indol-5-yl)acetamide] | 85 | 82 | 70 | 19
CCCCOC(=O)Cn1c2c(c3cc(Cl)ccc31)CN(C)CC2 [Compound 52, butyl 2-(8-chloro-1,2,3,4-tetrahydro-2-methylpyrido[4,3-b]indol-5-yl)acetate] | 98 | 89 | 85 | 22
Cc1ccc2c(c1)c1c(n2CCC(=O)NC(C)C)CCN(C)C1 [Compound 53] | 51 | 86 | 51 | -2
Cc1ccc2c(c1)c1c(n2CCC(=O)NCc2ccccc2)CCN(C)C1 [Compound 59, N-benzyl-3-(1,2,3,4-tetrahydro-2,8-dimethylpyrido[4,3-b]indol-5-yl)propanamide] | 60 | 96 | 72 | 4
CN1CCc2c(c3cc(Cl)ccc3n2CC(=O)NC2CCCCC2)C1 [Compound 60, 2-(8-chloro-1,2,3,4-tetrahydro-2-methylpyrido[4,3-b]indol-5-yl)-N-cyclohexylacetamide] | 50 | 52 | 35 | 18
